According to EP0219144A1, “Diphenyl ether herbicides” (SHELL INTERNATIONALE RESEARCH MAATSCHAPPIJ B.V., priority 1985, dated 1987):

Experiment: physchem
Assay type: physicochemical
Conditions: for half-life: 25% 1,4-dioxan
Experimental: The hydrolytic stability of the compounds of this invention was compared with representative examples of other phenoxy phthalides specifically described in Applicants' earlier EPA 145078. This property was evaluated by determining the half-life (in hours) at pH7.0 and 9.0 in 25% 1,4-dioxan at 39°C. The results of these tests are set out in Table I below, in which the test compounds are identified by reference to the substituent A in the following formula: [drawing 12] 'N.D.D.' = No detectable decomposition over a 200 hour period

Row | SMILES | Half-Life pH 7.0 (pH 7) | Half-Life pH 9.0 (pH 9) | half-life (pH 7) | half-life (pH 9)
1 | CCC1(CC)OC(=O)c2ccc(Oc3ccc(C(F)(F)F)cc3Cl)cc21 [C(C2H5)2, H, 5-(2'-Chloro-4'-trifluoromethylphenoxy)-3,3-diethylphthalide] | NDD | NDD | – | –
2 | CC1(C)OC(=O)c2ccc(Oc3c(Cl)cc(C(F)(F)F)cc3Cl)cc21 [C(CH3)2, Cl] | NDD | NDD | – | –
3 | CC1(C)OC(=O)c2ccc(Oc3ccc(C(F)(F)F)cc3Cl)cc21 [C(CH3)2, H, 5-(2'-Chloro-4'-trifluoromethylphenoxy)-3,3-dimethyl phthalide] | – | – | 4920 h | 1900 h
4 | CCC1(C)OC(=O)c2ccc(Oc3ccc(C(F)(F)F)cc3Cl)cc21 (centres unmarked) [C(CH3)(C2H5), H] | NDD | NDD | – | –
5 | O=C1OCc2cc(Oc3ccc(C(F)(F)F)cc3Cl)ccc21 [CH2, H, reference compound] | – | – | 56.5 h | 14.5 h
6 | CC1OC(=O)c2ccc(Oc3ccc(C(F)(F)F)cc3Cl)cc21 (centres unmarked) [CH(CH3), H, (2'-chloro-9'-trifluoro-methylphenoxy)-3-methyl phthalide, reference compound] | – | – | 1060 h | 11 h
7 | COC1OC(=O)c2ccc(Oc3ccc(C(F)(F)F)cc3Cl)cc21 (centres unmarked) [CH(OCH3), H, reference compound] | – | – | 17.2 h | 1.2 h
